Measurements taken from ChEMBL document CHEMBL1201862, “PubChem BioAssay data set” (2004).
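Method: 48-hour compound exposure of cells in 96-well plates, five concentrations, linear interpolation of endpoints. The concentration for 50% growth inhibition is given as GI50.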 Calls of active or inactive are those of the source. Rule as the data show it: active = GI50 up to about 1.1 µM and inactive = higher.

Experiments:
Test in all cases: inhibition of tumour cell growth, NCI panel, 48 h
[1] = tested on: 786-0
[2] = tested on: ACHN
[3] = tested on: BT-549
[4] = tested on: CCRF-CEM
[5] = tested on: HCC 2998
[6] = tested on: HCT-116
[7] = tested on: MCF7
[8] = tested on: MDA-MB-231
[9] = tested on: MDA-N
[10] = tested on: MOLT-4
[11] = tested on: Malme-3M
[12] = tested on: NCI-H226
[13] = tested on: NCI-H522
[14] = tested on: OVCAR-5
[15] = tested on: RPMI-8226
[16] = tested on: SK-MEL-28
[17] = tested on: SK-MEL-2
[18] = tested on: SNB-19
[19] = tested on: SR
[20] = tested on: UACC-62

| SMILES | GI50 [1] | GI50 [2] | GI50 [3] | GI50 [4] | GI50 [5] | GI50 [6] | GI50 [7] | GI50 [8] | GI50 [9] | GI50 [10] | GI50 [11] | GI50 [12] | GI50 [13] | GI50 [14] | GI50 [15] | GI50 [16] | GI50 [17] | GI50 [18] | GI50 [19] | GI50 [20] |
| --- | --- | --- | --- | --- | --- | --- | --- | --- | --- | --- | --- | --- | --- | --- | --- | --- | --- | --- | --- | --- |
| COc1ccc(C2=C(N)c3ccccc3C2=O)cc1 | 52.1 µM (inactive) | 63.2 µM (inactive) | 48.6 µM (inactive) | > 100 µM (inactive) | > 100 µM (inactive) | 87.5 µM (inactive) | > 100 µM (inactive) | 32.5 µM (inactive) | > 100 µM (inactive) | > 100 µM (inactive) | > 100 µM (inactive) | 45.6 µM (inactive) | 69 µM (inactive) | > 100 µM (inactive) | > 100 µM (inactive) | > 100 µM (inactive) | > 100 µM (inactive) | 25.7 µM (inactive) | > 100 µM (inactive) | > 100 µM (inactive) |
| Cc1ccc(NC(=O)c2cc(S(=O)(=O)Nc3nc4cccnc4[nH]3)c(SSc3cc(Cl)c(C(=O)Nc4ccc(C)cc4)cc3S(=O)(=O)Nc3nc4cccnc4[nH]3)cc2Cl)cc1 | > 100 µM (inactive) | > 100 µM (inactive) | > 100 µM (inactive) | > 100 µM (inactive) | > 100 µM (inactive) | > 100 µM (inactive) | > 100 µM (inactive) | > 100 µM (inactive) | > 100 µM (inactive) | > 100 µM (inactive) | > 100 µM (inactive) | > 100 µM (inactive) | > 100 µM (inactive) | > 100 µM (inactive) | > 100 µM (inactive) | > 100 µM (inactive) | > 100 µM (inactive) | > 100 µM (inactive) | > 100 µM (inactive) | > 100 µM (inactive) |
| COC(=O)c1cc2c3c(c1)Oc1cc(C(=O)OC)cc4c1C3c1c(cc(C(=O)OC)cc1O4)O2 | 11 µM (inactive) | 11.7 µM (inactive) | 20.5 µM (inactive) | 11.4 µM (inactive) | 31.8 µM (inactive) | 18.6 µM (inactive) | 10.6 µM (inactive) | 17.1 µM (inactive) | 8.22 µM (inactive) | 7.41 µM (inactive) | 8.99 µM (inactive) | 3.82 µM (inactive) | 3.19 µM (inactive) | 24.5 µM (inactive) | 6.44 µM (inactive) | 34 µM (inactive) | 36.6 µM (inactive) | 20 µM (inactive) | 13.8 µM (inactive) | 16.9 µM (inactive) |
| CCN(C(=O)N[C@H](C(=O)N[C@@H](C)C(=O)OC)C(C)C)c1ccccc1 | 27.3 µM (inactive) | 45.2 µM (inactive) | 60.4 µM (inactive) | 56 µM (inactive) | 17.4 µM (inactive) | 22.5 µM (inactive) | 31 µM (inactive) | > 100 µM (inactive) | 34.2 µM (inactive) | 65.2 µM (inactive) | 20 µM (inactive) | > 100 µM (inactive) | 19 µM (inactive) | > 100 µM (inactive) | 33.4 µM (inactive) | 33.1 µM (inactive) | 28.8 µM (inactive) | 64.3 µM (inactive) | 31.2 µM (inactive) | 22.1 µM (inactive) |
| c1ccc2c(c1)CN1CCCC1CN2 (stereo not given) | > 100 µM (inactive) | > 100 µM (inactive) | > 100 µM (inactive) | > 100 µM (inactive) | > 100 µM (inactive) | > 100 µM (inactive) | > 100 µM (inactive) | > 100 µM (inactive) | > 100 µM (inactive) | > 100 µM (inactive) | > 100 µM (inactive) | > 100 µM (inactive) | > 100 µM (inactive) | > 100 µM (inactive) | > 100 µM (inactive) | > 100 µM (inactive) | > 100 µM (inactive) | > 100 µM (inactive) | > 100 µM (inactive) | > 100 µM (inactive) |
| O=[N+]([O-])c1cc2ccc1OCc1cccc(n1)COc1ccc(cc1[N+](=O)[O-])/C=N\CCCCCCCC/N=C\2 | > 100 µM (inactive) | > 100 µM (inactive) | > 100 µM (inactive) | > 100 µM (inactive) | > 100 µM (inactive) | > 100 µM (inactive) | > 100 µM (inactive) | > 100 µM (inactive) | > 100 µM (inactive) | > 100 µM (inactive) | > 100 µM (inactive) | > 100 µM (inactive) | > 100 µM (inactive) | > 100 µM (inactive) | > 100 µM (inactive) | > 100 µM (inactive) | > 100 µM (inactive) | > 100 µM (inactive) | > 100 µM (inactive) | > 100 µM (inactive) |
| CCc1nc(N)nc(N)c1-c1ccc2nn(-c3ccccc3)[n+]([O-])c2c1 | 1.16 µM (inactive) | 1.76 µM (inactive) | 11.9 µM (inactive) | 1.6 µM (inactive) | 4.59 µM (inactive) | 0.396 µM (active) | 4.17 µM (inactive) | 11.7 µM (inactive) | 0.895 µM (active) | 2.84 µM (inactive) | 10.7 µM (inactive) | 14.5 µM (inactive) | 2.83 µM (inactive) | 14 µM (inactive) | 8.24 µM (inactive) | 11.8 µM (inactive) | 14.3 µM (inactive) | 16.3 µM (inactive) | 1.35 µM (inactive) | 1.02 µM (active) |
